For this experiment, the target named is T1, mouse TRPC5 (Mus musculus, UniProt Q9QX29).
T1 construct: expressed in transfected cells; host or cells: HEK293 (ATCC CRL 1573), stably transfected, tetracycline-induced
T1 sequence (Q9QX29 1-975): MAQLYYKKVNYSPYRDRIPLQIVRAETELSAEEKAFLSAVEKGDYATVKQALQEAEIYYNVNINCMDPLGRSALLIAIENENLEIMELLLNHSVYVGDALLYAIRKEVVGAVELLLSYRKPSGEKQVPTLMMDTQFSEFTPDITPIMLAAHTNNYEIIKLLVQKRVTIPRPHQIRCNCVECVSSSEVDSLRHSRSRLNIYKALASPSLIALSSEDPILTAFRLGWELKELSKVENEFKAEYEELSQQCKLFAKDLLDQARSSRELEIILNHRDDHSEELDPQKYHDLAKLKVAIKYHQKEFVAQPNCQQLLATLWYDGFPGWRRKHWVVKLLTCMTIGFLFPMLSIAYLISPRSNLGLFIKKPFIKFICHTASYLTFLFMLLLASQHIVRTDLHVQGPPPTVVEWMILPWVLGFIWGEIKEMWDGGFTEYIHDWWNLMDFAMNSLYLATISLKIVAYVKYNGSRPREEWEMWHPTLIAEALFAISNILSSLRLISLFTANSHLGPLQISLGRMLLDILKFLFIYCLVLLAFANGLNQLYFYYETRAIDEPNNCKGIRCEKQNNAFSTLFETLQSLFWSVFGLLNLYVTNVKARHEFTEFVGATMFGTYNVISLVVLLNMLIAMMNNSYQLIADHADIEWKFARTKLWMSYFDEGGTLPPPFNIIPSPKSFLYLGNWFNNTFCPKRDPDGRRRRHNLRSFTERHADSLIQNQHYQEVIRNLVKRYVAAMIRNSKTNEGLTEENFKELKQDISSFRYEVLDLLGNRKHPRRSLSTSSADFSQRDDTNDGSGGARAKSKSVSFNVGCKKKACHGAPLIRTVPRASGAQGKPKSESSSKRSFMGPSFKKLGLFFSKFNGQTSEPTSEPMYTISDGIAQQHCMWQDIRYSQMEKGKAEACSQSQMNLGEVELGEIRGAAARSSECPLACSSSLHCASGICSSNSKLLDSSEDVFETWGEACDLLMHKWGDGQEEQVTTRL
In words: FLIPR Ca2+ influx assay (Fluo-4) with 365/447 nm photoswitching, HEK293 stably expressing mouse TRPC5. It is filed as cell-based. Conditions: for Activity on TRPC5 in FLIPR screening: 365/447 nm cycles; for EC50: Z* = mostly-Z PSS under 365 nm LED, Fluo-4-loaded cells, read-out: Agonistic EC50 (365 nm) TRPC5. The text has this: We initially screened for the photoswitchability of activity in cells using a fluorometric imaging plate reader (FLIPR) calcium flux assay, with HEK293 cells stably expressing mouse TRPC4β or mouse TRPC5. Note, however, that the parallel-throughput FLIPR setup is limited to use fixed light-emitting diodes at 365 nm (good Z) and 447 nm (suboptimal E), which, combined with the slowness of the onset and recovery of the fluorescence readout for calcium, causes the FLIPR results to underestimate the reagents’ true speed, degree and completion of TRPC chromocontrol (shown later). […]
3 Cultured Cell Lines (primarily for Fig. 1 and Fig. 2)
3.1 FLIPR Ca2+ influx assay in cell suspensions.
We initially screened for photoswitchability of activity in cells, using a fluorometric imaging plate reader (FLIPR) calcium flux assay, with human embryonic kidney cell line HEK293 stably transfected to express mouse TRPC4β- or TRPC5-CFP fusion protein (HEKmTRPC4β-CFP / HEKmTRPC5-CFP, HEK293 obtained from ATCC CRL 1573). The FLIPR setup provides high-content data, but it is limited to using LED wavelengths of 365 nm (best-Z) and 447 nm (suboptimal-E), while imaging at 470 nm excitation (Fluo-4 AM as Ca2+ indicator; this imaging light counteracts both PSSs). Therefore, we expected the FLIPR results to under-estimate the true chromocontrol power accessible to the reagents.
Cells were grown to 70%-90% confluency in a 75-cm2 culture flask, trypsinised, washed and resuspended in BSA-containing (0.1%) HBS, and supplemented with 3 µM Fluo-4/AM. Stably TRPC-transfected cells were induced with tetracycline 24 h prior to the experiments.42,43 After incubation at 37°C for 30 min [Fluo-4 loading], cells were again washed, resuspended, and dispensed (40 µl/well) into black pigmented, clear-bottom 384-well plates (Greiner µ-clear). To image the Fluo-4 fluorescence during the application and photoswitching of test compounds, these plates were first mounted to a Tecan Fluent 480 (Tecan, Männedorf, Switzerland) liquid handling device, equipped with a 384-tip multichannel arm and a gripper arm. A custom-made plate-imaging device was used for photoswitching during fluorescence imaging, which features LED-based excitation modules (365 nm and 447 nm used here for photoswitching, and 470 nm used here for Fluo-4 readout) projected onto the bottom of the microwell plate, with a cooled scientific complementary metal oxide sensor (sCMOS) camera (Zyla 5.5, Andor, Belfast, UK) equipped with a Nokton 42.5 mm f/0.95 (Voigtlaender, Fürth, Germany) for detection. The LEDs were controlled with an Arduino device and constant current drivers (1 A for 365 and 470 nm LEDs; 3 A for 447 nm LED); detection was under the control of Micromanager 2.0 software. Compounds were serially diluted and applied to the Fluo-4-loaded cell suspensions inside this custom plate-imaging device, then fluorescence intensities (under 470 nm excitation) were continuously recorded during programmed illuminations e.g. with alternating 365 nm and 447 nm phases.
Concentration-response curves for the Z-isomers (channel activation) were then constructed from the maximal signals during 365 nm phases, after a suitable number of "priming" cycles to allow the system to reach stable performance (Supplementary Fig. 13).
All experiments were conducted as a minimum of 3 independent experiments with each experiment averaging data in technical duplicates. […]
Cellular TRPC5 photoswitching: HEK cell Ca2+ influx photomodulation […]
Supplementary Figure 12. […] All […]
four compounds' profiles are consistent with their being ideal efficacy photoswitches (representative traces from one experiment out of ≥3 independent experiments each run in technical duplicates). […]
log c [nM] log c [nM] log c [nM] log c [nM]
Supplementary Figure 13. Dose-response for Z*-AzPico, Z*-AzPico2, Z*-AzHC, and Z*-AzHC2 on TRPC5 and […]

As a reminder, the EC50 is the concentration needed to bring the measured effect to its halfway point. Regarding `Cn1c(=O)n(CCCO)c(=O)c2c1nc(Oc1ccc(N=Nc3ccccc3)c(OC(F)(F)F)c1)n2Cc1ccc(Cl)cc1` [AzPico], the “Activity on TRPC5 in FLIPR screening” value was “photoswitchable activity” and the EC50 turned out to be 4 nM. As for `Cn1c(=O)n(CCCO)c(=O)c2c1nc(Oc1ccc(/N=N\c3ccccc3)c(Cl)c1)n2Cc1ccc(Cl)cc1` [Z*-AzHC], the concentration giving a half-maximal response (EC50) was 6.4 nM. With `Cn1c(=O)n(CCCO)c(=O)c2c1nc(Oc1ccc(N=Nc3ccccc3)c(Cl)c1)n2Cc1ccc(Cl)cc1` [AzHC], the “Activity on TRPC5 in FLIPR screening” value is listed as “photoswitchable activity” and the EC50 was determined as 6.4 nM.

Regarding `Cn1c(=O)n(CCCO)c(=O)c2c1nc(Oc1ccc(/N=N/c3ccccc3)c(OC(F)(F)F)c1)n2Cc1ccc(Cl)cc1` [E-AzPico], the “Effect of E isomer alone on TRPC5” value (12 pM to […], before 365-nm illumination) was “no effect”.

Source of the values: PMC12858405, “Ideal efficacy photoswitching for chromocontrol of TRPC4/5 channel functions in live tissues” (Nature Chemical Biology, 2026).
